From US20240116892A1, “HETEROCYCLIC AMIDE AND UREA COMPOUNDS AS JAK2 INHIBITORS” (Ajax Therapeutics, Inc., priority 2022, published 2024)

biological target: JAK2 (JH1 domain-catalytic, Y1007F, Y1008F) kinase (Homo sapiens (Human), UniProt O60674, Y1007F/Y1008F); test: JAK2 JH1 Domain Binding Assay; details: qPCR readout
Summary of the method: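 JH1 catalytic domain (Y1007F/Y1008F) expressed as NFkB DNA-binding-domain fusion in HEK293 cells, DNA-tagged. Competition with immobilized biotinylated ligand on streptavidin beads, 1 h at RT in PBS/Tween/BSA/DTT; bound kinase eluted with free ligand and quantified by qPCR.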

JAK2 (JH1 domain-catalytic, Y1007F, Y1008F) kinase, sequence (O60674 849-1124 Y1007F/Y1008F): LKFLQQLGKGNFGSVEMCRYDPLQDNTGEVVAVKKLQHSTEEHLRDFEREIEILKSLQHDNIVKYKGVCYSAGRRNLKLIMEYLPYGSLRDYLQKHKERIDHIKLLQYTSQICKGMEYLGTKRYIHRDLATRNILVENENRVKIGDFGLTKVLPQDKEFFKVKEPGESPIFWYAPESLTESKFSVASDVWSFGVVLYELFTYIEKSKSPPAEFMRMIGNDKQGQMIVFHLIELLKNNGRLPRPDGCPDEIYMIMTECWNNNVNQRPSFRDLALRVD

First: Cn1cc(C(F)(F)F)cc(NC(=O)N2CCC23CCN(c2cnc4[nH]ccc4n2)CC3)c1=O [Example I-67, N-(1-methyl-2-oxo-5-(trifluoromethyl)-1,2-dihydropyridin-3-yl)-7-(5H-pyrrolo[2,3-b]pyrazin-2-yl)-1,7-diazaspiro[3.5]nonane-1-carboxamide]
Second: Cn1cc(C(F)(F)F)cc(NC(=O)N2CC=CC23CCN(c2cnc4[nH]ccc4n2)CC3)c1=O [Example I-78, N-(1-methyl-2-oxo-5-(trifluoromethyl)-1,2-dihydropyridin-3-yl)-8-(5H-pyrrolo[2,3-b]pyrazin-2-yl)-1,8-diazaspiro[4.5]dec-3-ene-1-carboxamide]
The Kd of the first is higher: 50 to 1000 nM for the first, 10 to 50 nM for the second.

`CN(C(=O)Nc1cc(C(F)(F)F)cn(C)c1=O)C1CCN(c2cnc3[nH]ncc3n2)CC1` [Example I-68, 1-(1-(1H-pyrazolo[3,4-b]pyrazin-5-yl)piperidin-4-yl)-1-methyl-3-(1-methyl-2-oxo-5-(trifluoromethyl)-1,2-dihydropyridin-3-yl)urea] and `CN(C(=O)Nc1cc(C(F)(F)F)cn(C)c1=O)[C@H]1CCN(c2cnc3[nH]ncc3n2)C[C@H]1F` [Example I-83-a, 1-((3R,4S)-3-fluoro-1-(1H-pyrazolo[3,4-b]pyrazin-5-yl)piperidin-4-yl)-1-methyl-3-(1-methyl-2-oxo-5-(trifluoromethyl)-1,2-dihydropyridin-3-yl)urea] cannot be ordered by Kd: < 10 nM for the first, < 10 nM for the second.

`COc1n[nH]c2ncc(N3CCC(N(C)C(=O)Nc4cc(C(F)(F)F)cn(C)c4=O)CC3)cc12` [Example I-69, 1-(1-(3-methoxy-1H-pyrazolo[3,4-b]pyridin-5-yl)piperidin-4-yl)-1-methyl-3-(1-methyl-2-oxo-5-(trifluoromethyl)-1,2-dihydropyridin-3-yl)urea] and `COc1n[nH]c2ncc(N3CC[C@H](N(C)C(=O)Nc4cc(C(F)(F)F)cn(C)c4=O)[C@@H](F)C3)cc12` [Example I-84-a, 1-((3S,4S)-3-fluoro-1-(3-methoxy-1H-pyrazolo[3,4-b]pyridin-5-yl)piperidin-4-yl)-1-methyl-3-(1-methyl-2-oxo-5-(trifluoromethyl)-1,2-dihydropyridin-3-yl)urea] cannot be ordered by Kd: < 10 nM for the first, < 10 nM for the second.

`C[C@@H]1CN(c2cnc3[nH]ncc3c2)CC[C@@H]1N(C)C(=O)Nc1cc(C(F)(F)F)cn(C)c1=O` [Example I-70-a, 1-methyl-1-((3R,4S)-3-methyl-1-(1H-pyrazolo[3,4-b]pyridin-5-yl)piperidin-4-yl)-3-(1-methyl-2-oxo-5-(trifluoromethyl)-1,2-dihydropyridin-3-yl)urea] and `C[C@H]1CN(c2cnc3[nH]ncc3c2)CC[C@H]1N(C)C(=O)Nc1cc(C(F)(F)F)cn(C)c1=O` [Example I-70-b, 1-methyl-1-((3S,4R)-3-methyl-1-(1H-pyrazolo[3,4-b]pyridin-5-yl)piperidin-4-yl)-3-(1-methyl-2-oxo-5-(trifluoromethyl)-1,2-dihydropyridin-3-yl)urea] cannot be ordered by Kd: < 10 nM for the first, < 10 nM for the second.

First: Cn1cc(C(F)(F)F)cc(NC(=O)OC2(C)CCN(c3cnc4[nH]ccc4n3)CC2)c1=O [Example I-71, 4-methyl-1-(5H-pyrrolo[2,3-b]pyrazin-2-yl)piperidin-4-yl (1-methyl-2-oxo-5-(trifluoromethyl)-1,2-dihydropyridin-3-yl)carbamate]
Second: Cn1cc(C(F)(F)F)cc(NC(=O)C2(C3CCN(c4cnc5[nH]ccc5n4)CC3)CC2)c1=O [Example I-85, 1-(1-(5H-pyrrolo[2,3-b]pyrazin-2-yl)piperidin-4-yl)-N-(1-methyl-2-oxo-5-(trifluoromethyl)-1,2-dihydropyridin-3-yl)cyclopropane-1-carboxamide]
The Kd of the first is higher: 50 to 1000 nM for the first, < 10 nM for the second.

First: CN(C(=O)Nc1cc(C(F)(F)F)cn(C)c1=O)C1CC2(C1)CN(c1cnc3[nH]ncc3n1)C2 [Example I-72, 1-(2-(1H-pyrazolo[3,4-b]pyrazin-5-yl)-2-azaspiro[3.3]heptan-6-yl)-1-methyl-3-(1-methyl-2-oxo-5-(trifluoromethyl)-1,2-dihydropyridin-3-yl)urea]
Second: CN(C(=O)Nc1cc(C(F)(F)F)cn(C)c1=O)C1CC2(C1)CN(c1cnc3[nH]cc(C#N)c3n1)C2 [Example I-75, 1-(2-(7-cyano-5H-pyrrolo[2,3-b]pyrazin-2-yl)-2-azaspiro[3.3]heptan-6-yl)-1-methyl-3-(1-methyl-2-oxo-5-(trifluoromethyl)-1,2-dihydropyridin-3-yl)urea]
The Kd of the first is lower: < 10 nM for the first, ≥ 5000 nM for the second.

`CN(C(=O)Nc1cc(C(F)(F)F)cn(C)c1=O)C1CCN(c2cnc3cn[nH]c3c2)CC1` [Example I-73, 1-(1-(1H-pyrazolo[4,3-b]pyridin-6-yl)piperidin-4-yl)-1-methyl-3-(1-methyl-2-oxo-5-(trifluoromethyl)-1,2-dihydropyridin-3-yl)urea] and `CN(C(=O)Nc1cc(C(F)(F)F)cn(C)c1=O)C1CCN(c2cnc3[nH]c(=O)[nH]c3c2)CC1` [Example I-76, 1-methyl-3-(1-methyl-2-oxo-5-(trifluoromethyl)-1,2-dihydropyridin-3-yl)-1-(1-(2-oxo-2,3-dihydro-1H-imidazo[4,5-b]pyridin-6-yl)piperidin-4-yl)urea] cannot be ordered by Kd: < 10 nM for the first, < 10 nM for the second.

First: C[C@H]1CN(c2cnc3[nH]ncc3c2)CC[C@@H]1N(C)C(=O)Nc1cc(C(F)(F)F)cn(C)c1=O [Example I-74-a, 1-methyl-1-((3S,4S)-3-methyl-1-(1H-pyrazolo[3,4-b]pyridin-5-yl)piperidin-4-yl)-3-(1-methyl-2-oxo-5-(trifluoromethyl)-1,2-dihydropyridin-3-yl)urea]
Second: C[C@@H]1CN(c2cnc3[nH]ncc3c2)CC[C@H]1N(C)C(=O)Nc1cc(C(F)(F)F)cn(C)c1=O [Example I-74-b, 1-methyl-1-((3R,4R)-3-methyl-1-(1H-pyrazolo[3,4-b]pyridin-5-yl)piperidin-4-yl)-3-(1-methyl-2-oxo-5-(trifluoromethyl)-1,2-dihydropyridin-3-yl)urea]
The Kd of the first is lower: < 10 nM for the first, 50 to 1000 nM for the second.

`COCc1cc2nc(N3CCC(N(C)C(=O)Nc4cc(C(F)(F)F)cn(C)c4=O)CC3)cnc2[nH]1` [Example I-77, 1-(1-(6-(methoxymethyl)-5H-pyrrolo[2,3-b]pyrazin-2-yl)piperidin-4-yl)-1-methyl-3-(1-methyl-2-oxo-5-(trifluoromethyl)-1,2-dihydropyridin-3-yl)urea] and `CN(C(=O)Nc1cc(C(F)(F)F)cn(C)c1=O)C1CCN(c2cnc3[nH]n(C)c(=O)c3c2)CC1` [Example I-86, 1-methyl-3-(1-methyl-2-oxo-5-(trifluoromethyl)-1,2-dihydropyridin-3-yl)-1-(1-(2-methyl-3-oxo-2,3-dihydro-1H-pyrazolo[3,4-b]pyridin-5-yl)piperidin-4-yl)urea] cannot be ordered by Kd: < 10 nM for the first, < 10 nM for the second.

`CN(C(=O)Nc1cc(C(F)(F)F)cn(C)c1=O)[C@H]1[C@@H]2CC[C@H]1CN(c1cnc3[nH]ccc3n1)C2` [Example I-79, 1-(3-(5H-pyrrolo[2,3-b]pyrazin-2-yl)-3-azabicyclo[3.2.1]octan-8-yl)-1-methyl-3-(1-methyl-2-oxo-5-(trifluoromethyl)-1,2-dihydropyridin-3-yl)urea] and `CN(C(=O)Nc1cc(C(F)(F)F)cn(C)c1=O)[C@H]1[C@@H]2CC[C@H]1CN(c1cnc3[nH]ncc3c1)C2` [Example I-80, 1-(3-(1H-pyrazolo[3,4-b]pyridin-5-yl)-3-azabicyclo[3.2.1]octan-8-yl)-1-methyl-3-(1-methyl-2-oxo-5-(trifluoromethyl)-1,2-dihydropyridin-3-yl)urea] fall in the same range of Kd: 10 to 50 nM for the first, 10 to 50 nM for the second.

First: Cn1cc(C(F)(F)F)cc(NC(=O)N2CC=CC23CCN(c2cnc4[nH]ncc4c2)CC3)c1=O [Example I-81, N-(1-methyl-2-oxo-5-(trifluoromethyl)-1,2-dihydropyridin-3-yl)-8-(1H-pyrazolo[3,4-b]pyridin-5-yl)-1,8-diazaspiro[4.5]dec-3-ene-1-carboxamide]
Second: CO[C@H]1CN(c2cnc3[nH]ncc3c2)CC[C@H]1N(C)C(=O)Nc1cc(C(F)(F)F)cn(C)c1=O [Example I-88-a, 1-((3S,4R)-3-methoxy-1-(1H-pyrazolo[3,4-b]pyridin-5-yl)piperidin-4-yl)-1-methyl-3-(1-methyl-2-oxo-5-(trifluoromethyl)-1,2-dihydropyridin-3-yl)urea]
The Kd of the first is higher: 10 to 50 nM for the first, < 10 nM for the second. The second binds more tightly here.

`CN(C(=O)Nc1cc(C(F)(F)F)cn(C)c1=O)[C@@H]1CCN(c2cnc3[nH]ncc3n2)C[C@@H]1F` [Example I-83-b, 1-((3S,4R)-3-fluoro-1-(1H-pyrazolo[3,4-b]pyrazin-5-yl)piperidin-4-yl)-1-methyl-3-(1-methyl-2-oxo-5-(trifluoromethyl)-1,2-dihydropyridin-3-yl)urea] and `COc1n[nH]c2ncc(N3CC[C@@H](N(C)C(=O)Nc4cc(C(F)(F)F)cn(C)c4=O)[C@H](F)C3)cc12` [Example I-84-b, 1-((3R,4R)-3-fluoro-1-(3-methoxy-1H-pyrazolo[3,4-b]pyridin-5-yl)piperidin-4-yl)-1-methyl-3-(1-methyl-2-oxo-5-(trifluoromethyl)-1,2-dihydropyridin-3-yl)urea] cannot be ordered by Kd: < 10 nM for the first, < 10 nM for the second.

`COc1n[nH]c2ncc(N3CC[C@@H](N(C)C(=O)Nc4cc(C(F)(F)F)cn(C)c4=O)[C@@H](F)C3)cc12` [Example I-87-a, 1-((3S,4R)-3-fluoro-1-(3-methoxy-1H-pyrazolo[3,4-b]pyridin-5-yl)piperidin-4-yl)-1-methyl-3-(1-methyl-2-oxo-5-(trifluoromethyl)-1,2-dihydropyridin-3-yl)urea] and `COc1n[nH]c2ncc(N3CC[C@H](N(C)C(=O)Nc4cc(C(F)(F)F)cn(C)c4=O)[C@H](F)C3)cc12` [Example I-87-b, 1-((3R,4S)-3-fluoro-1-(3-methoxy-1H-pyrazolo[3,4-b]pyridin-5-yl)piperidin-4-yl)-1-methyl-3-(1-methyl-2-oxo-5-(trifluoromethyl)-1,2-dihydropyridin-3-yl)urea] cannot be ordered by Kd: < 10 nM for the first, < 10 nM for the second.

For `CO[C@@H]1CN(c2cnc3[nH]ncc3c2)CC[C@@H]1N(C)C(=O)Nc1cc(C(F)(F)F)cn(C)c1=O` [Example I-88-b, 1-((3R,4S)-3-methoxy-1-(1H-pyrazolo[3,4-b]pyridin-5-yl)piperidin-4-yl)-1-methyl-3-(1-methyl-2-oxo-5-(trifluoromethyl)-1,2-dihydropyridin-3-yl)urea], the Kd was < 10 nM.
